Patent US9211310B2, “Use of a Chinese medicine composition in preparing medicaments for treating secondary prevention of myocardial infarction” (TASLY PHARMACEUTICAL GROUP CO., LTD, priority 2010, dated 2015)

System: patients after acute myocardial infarction
Assay: TCM symptom score, total and single (chest pain, chest tightness, short breath, fatigue, palpitation, spontaneous perspiration, pale complexion), same clinical trial
Format: in vivo, human
Design: total score of TCM symptom, Mean / total score of TCM symptom, Min / total score of TCM symptom, Max / total score of TCM symptom, Md / change of total score of TCM symptom, Mean / change of total score of TCM symptom, Max / change of total score of TCM symptom, Md: scale not given here
Details: FAS
Source text: 3508 patients who were in accordance with the diagnostic standards of AMI for 28 days to 2 years and differentiated as Qi deficiency and blood stagnation syndrome by TCM were studied. 0.5 g Chinese medicine composition prepared by the method of EXAMPLE 1 (Coded as QSYQ) was administrated half an hour after meal, 3 times per day.
They included the overall survival time, angina pectoris score, TCM symptom score and life quality score, where angina pectoris score, TCM symptom score and life quality score were evaluated at randomization, in 1st, 3rd, 6th, 9th, 12th month after treatment and 18th month after follow-up.
The analysis method referred to the angina pectoris score.

[1] = 1 month after treatment-baseline
[2] = 3 month after treatment-baseline

## CC(=O)Oc1ccccc1C(=O)O [Control group, aspirine]
1 month after treatment
  total score of TCM symptom, Max: 34.00
  total score of TCM symptom, Md: 11.00
  total score of TCM symptom, Mean: 11.84
  total score of TCM symptom, Min: 0.00
[1]
  change of fatigue 0, % of patients: (72.40%)
  change of fatigue 0, number of patients: 1238
  change of fatigue 1, % of patients: (0.06%)
  change of fatigue 1, number of patients: 1
  change of fatigue 2, % of patients: (17.72%)
  change of fatigue 2, number of patients: 303
  change of fatigue 4, % of patients: (2.63%)
  change of fatigue 4, number of patients: 45
  change of fatigue 6, % of patients: (0.76%)
  change of fatigue 6, number of patients: 13
  change of fatigue −2, % of patients: (5.73%)
  change of fatigue −2, number of patients: 98
  change of fatigue −4, % of patients: (0.64%)
  change of fatigue −4, number of patients: 11
  change of fatigue −6, % of patients: (0.06%)
  change of fatigue −6, number of patients: 1
  change of pale complexion 0, number of patients: 1477
  change of pale complexion 0, percent of patients: (86.48%)
  change of pale complexion 1, number of patients: 166
  change of pale complexion 1, percent of patients: (9.72%)
  change of pale complexion −1, number of patients: 65
  change of pale complexion −1, percent of patients: (3.81%)
  change of palpitation 0, number of patients: 1242
  change of palpitation 0, percent of patients: (72.63%)
  change of palpitation 1, number of patients: 334
  change of palpitation 1, percent of patients: (19.53%)
  change of palpitation 2, number of patients: 25
  change of palpitation 2, percent of patients: (1.46%)
  change of palpitation 3, number of patients: 5
  change of palpitation 3, percent of patients: (0.29%)
  change of palpitation −1, number of patients: 103
  change of palpitation −1, percent of patients: (6.02%)
  change of palpitation −2, number of patients: 1
  change of palpitation −2, percent of patients: (0.06%)
  change of palpitation −3, number of patients: 0
  change of palpitation −3, percent of patients: (0.00%)
  change of short breath 0, % of patients: (77.37%)
  change of short breath 0, number of patients: 1323
  change of short breath 2, % of patients: (14.74%)
  change of short breath 2, number of patients: 252
  change of short breath 4, % of patients: (1.75%)
  change of short breath 4, number of patients: 30
  change of short breath 6, % of patients: (0.41%)
  change of short breath 6, number of patients: 7
  change of short breath −2, % of patients: (5.26%)
  change of short breath −2, number of patients: 90
  change of short breath −4, % of patients: (0.47%)
  change of short breath −4, number of patients: 8
  change of short breath −6, % of patients: (0.00%)
  change of short breath −6, number of patients: 0
  change of spontaneous perspiration 0, number of patients: 1249
  change of spontaneous perspiration 0, percent of patients: (73.08%)
  change of spontaneous perspiration 1, number of patients: 279
  change of spontaneous perspiration 1, percent of patients: (16.33%)
  change of spontaneous perspiration 2, number of patients: 51
  change of spontaneous perspiration 2, percent of patients: (2.98%)
  change of spontaneous perspiration 3, number of patients: 16
  change of spontaneous perspiration 3, percent of patients: (0.94%)
  change of spontaneous perspiration −1, number of patients: 94
  change of spontaneous perspiration −1, percent of patients: (5.50%)
  change of spontaneous perspiration −2, number of patients: 17
  change of spontaneous perspiration −2, percent of patients: (0.99%)
  change of spontaneous perspiration −3, number of patients: 3
  change of spontaneous perspiration −3, percent of patients: (0.18%)
  change of total score of TCM symptom, Max: 24.00
  change of total score of TCM symptom, Md: 0.00
  change of total score of TCM symptom, Mean: −1.96
  change of total score of TCM symptom, Min: −33.00
[2]
  change of total score of TCM symptom, Max: 19.00
  change of total score of TCM symptom, Md: −2.00
  change of total score of TCM symptom, Mean: −2.91
  change of total score of TCM symptom, Min: −33.00
3 months after treatment
  distribution of total score of TCM symptom: Medium, number of patients: 546
  distribution of total score of TCM symptom: Medium, percentage of patients: (33.58%)
  distribution of total score of TCM symptom: Mild, number of patients: 1066
  distribution of total score of TCM symptom: Mild, percentage of patients: (65.56%)
  distribution of total score of TCM symptom: Severe, number of patients: 14
  distribution of total score of TCM symptom: Severe, percentage of patients: (0.86%)
  fatigue score 0, % of patients: (27.96%)
  fatigue score 0, number of patients: 480
  fatigue score 2, % of patients: (59.76%)
  fatigue score 2, number of patients: 1026
  fatigue score 4, % of patients: (11.47%)
  fatigue score 4, number of patients: 197
  fatigue score 6, % of patients: (0.82%)
  fatigue score 6, number of patients: 14
  pale complexion score 0, number of patients: 809
  pale complexion score 0, percent of patients: (47.12%)
  pale complexion score 1, number of patients: 677
  pale complexion score 1, percent of patients: (39.43%)
  pale complexion score 2, number of patients: 210
  pale complexion score 2, percent of patients: (12.23%)
  pale complexion score 3, number of patients: 21
  pale complexion score 3, percent of patients: (1.22%)
  palpitation score 0, number of patients: 480
  palpitation score 0, percent of patients: (27.96%)
  palpitation score 2, number of patients: 894
  palpitation score 2, percent of patients: (52.07%)
  palpitation score 4, number of patients: 310
  palpitation score 4, percent of patients: (18.05%)
  palpitation score 6, number of patients: 33
  palpitation score 6, percent of patients: (1.92%)
  short breath score 0, % of patients: (21.78%)
  short breath score 0, number of patients: 374
  short breath score 3, % of patients: (58.94%)
  short breath score 3, number of patients: 1012
  short breath score 6, % of patients: (18.52%)
  short breath score 6, number of patients: 318
  short breath score 9, % of patients: (0.76%)
  short breath score 9, number of patients: 13
  spontaneous perspiration score 0, number of patients: 667
  spontaneous perspiration score 0, percent of patients: (38.85%)
  spontaneous perspiration score 1, number of patients: 846
  spontaneous perspiration score 1, percent of patients: (49.27%)
  spontaneous perspiration score 2, number of patients: 190
  spontaneous perspiration score 2, percent of patients: (11.07%)
  spontaneous perspiration score 3, number of patients: 14
  spontaneous perspiration score 3, percent of patients: (0.82%)
  total score of TCM symptom, Max: 33.00
